Measurements: patent publication US8940723B2, “Combination of a pyrroloquinoline compound and a beta-lactam antimicrobial agent, mupirocin or chlorhexidine” (Helperby Therapeutics Limited, priority 2010, dated 2015)
≈ marks a conversion by molar mass, not a printed value. Entries after “also recorded” stand apart in the source; their conditions may differ. Read-outs that look alike come from different tables or passages of the source.

Legend:
[1] = system: clinically latent microorganisms; test: Screening for ability to kill clinically latent microorganisms (method of WO2000028074); assay type: cell-based
Description: International Patent Application, Publication Number WO2000028074 describes a method of screening compounds to determine their ability to kill clinically latent microorganisms. […] This observation has necessitated the development of novel antimicrobials which may be used to kill clinically latent microorganisms.
By way of example, WO2000028074 describes a suitable method of screening compounds to determine their ability to kill clinically latent microorganisms. A typical method may include the following steps: • (1) growing a bacterial culture to stationary phase; • (2) treating the stationary phase culture with one or more antimicrobial agents at a concentration and or time sufficient to kill growing bacteria, thereby selecting a phenotypically resistant sub-population; • (3) incubating a sample of the phenotypically resistant subpopulation with one or more test compounds or agents; and • (4) assessing any antimicrobial effects against the phenotypically resistant subpopulation.
According to this method, the phenotypically resistant sub-population may be seen as representative of clinically latent bacteria which remain metabolically active in vivo and which can result in relapse or onset of disease.

[2] = system: Staphylococcus aureus (Oxford); test: Minimum inhibitory concentration (MIC), broth dilution method; assay type: cell-based; settings: S. aureus (Oxford), Iso-Sensitest broth, overnight incubation at 37° C.
Description: Staphylococcus aureus (Oxford); Gram positive; Reference strain.
Iso-Sensitest Broth (Oxoid) was used for evaluation of Minimum inhibitory concentrations (MICs), susceptibility tests for antimicrobials, and efficacy of antimicrobial combinations.
The stock solution of each drug was diluted to required concentrations. 10 μl of drug from each dilution was taken and mixed with 290 μl of culture with 10^6 of bacterial cells on a 96-well plate to make the final required concentrations (μg/ml).
The plates were read at 405 nm using a 96-well plate reader Elx 800 equipped with a 405-nm filter (Bio-Tek) before and after incubation. The MIC values of the drugs were determined by comparison of the optical density reading between prior and post drug treatment.

[3] = system: Staphylococcus aureus (Oxford); test: Minimum bactericidal concentration (MBC), subculture on drug-free TSA plates; assay type: cell-based; settings: S. aureus (Oxford), subculture on TSA 24 to 48 hours at 37° C.
Description: Minimum bactericidal concentration (MBC) was determined by subculturing 100 μl of dilutions from the 96-well plate on fresh drug-free TSA agar plates and incubating further for 24 to 48 hours at 37° C.

[4] = system: log phase S. aureus (Oxford strain); test: Time-kill curve suspension assay, CFU counts, log phase; assay type: cell-based, Staphylococcus aureus
Description: For CFU counting, the bacterial suspensions were diluted using sterile deionized water or phosphate-buffered saline (PBS, Sigma Aldrich Ltd, Poole, Dorset, UK). 100 μl of 10-fold serial dilutions of bacteria culture were plated on one third of TSA plates in triplicate and incubated 24 to 48 hours at 37° C. The number of cells presented on the plates was counted using an AcoLyte colony counter (Synbiosis) and results were expressed as Colony Forming Units/ml (CFU/ml). […] (b) mupirocin; and (c) chlorhexidine gluconate against S. aureus, in a concentration range from below to above the MIC, was assessed in a suspension assay by the time-kill curve method. […] The wells were then inoculated with 280 μl of S. aureus (Oxford strain) suspension containing 10^7 CFU/ml of inocula. Drug free controls were also included. The microtitre plates were incubated at 37° C. for 16 to 24 hours, read in a 96-well plate reader, then samples were diluted and 100 μl of each dilution was plated out on TSA plates. After 24 to 48 hours incubation CFU was counted. Each test was performed in triplicate and repeated twice. […] The wells were then inoculated with 280 μl of S. aureus (Oxford strain) suspension containing 10^7 CFU/ml of inocula. Drug free controls were also included. The microtitre plates were incubated at 37° C. for 16 to 24 hours, read in a 96-well plate reader, then samples were diluted and 100 μl of each dilution was plated out on TSA plates. After 24 to 48 hours incubation CFU was counted. […] Each test was performed in triplicate and repeated twice. […] The wells were then inoculated with 280 μl of S. aureus (Oxford strain) suspensions containing 10^7 or 10^8 and CFU/ml of inocula. Drug free controls were also included. The microtitre plates were incubated at 37° C. for 16 to 24 hours, read in a 96-well plate reader, then samples were diluted and 100 μl of each dilution was plated out on TSA plates. After 24 to 48 hours incubation CFU was counted. Each test was performed in triplicate and repeated twice. […] The mean bacterial colony count at varying time points was compared by the two-tailed t-test with unequal variance. P values of ≦0.05 indicated significant difference.

[5] = Staphylococcus aureus, read-out: MIC
[6] = Staphylococcus aureus, read-out: MBC

| SMILES | activity against clinically latent microorganisms [1] | MIC [2, 5] | MBC [3, 6] | further results |
| --- | --- | --- | --- | --- |
| CC[C@H]1OC(=O)[C@H](C)[C@@H](O[C@H]2C[C@@](C)(OC)[C@@H](O)[C@H](C)O2)[C@H](C)[C@@H](O[C@@H]2O[C@H](C)C[C@H](N(C)C)[C@H]2O)[C@](C)(O)C[C@@H](C)CN(C)[C@H](C)[C@@H](O)[C@]1(C)O [azithromycin] | little or no activity | – | – | – |
| Cc1nc2ccc(Oc3ccccc3)cc2c2c1CCN2CCc1ccccc1 [4-methyl-8-phenoxy-1-(2-phenylethyl)-2,3-dihydro-1H-pyrrolo[3,2-c]quinoline] | – | 8 mg/L | 16 mg/L (≈ 42.1 µM) | activity against log phase S. aureus ([4]; agent alone at 4 μg/ml): no activities; also recorded: no activity; kind of activity against log phase S. aureus ([4]; pyrroloquinoline alone at 10 and 8 μg/ml): bactericidal activity; CFU/ml reduced from 10^7 to ([4]; pyrroloquinoline alone at 10 and 8 μg/ml, at 72 hours): zero |
| CC(=O)NC[C@H]1CN(c2ccc(N3CCOCC3)c(F)c2)C(=O)O1 [linezolid] | little or no activity | – | – | – |
| C/C(=C\C(=O)OCCCCCCCCC(=O)O)C[C@@H]1OC[C@H](C[C@@H]2O[C@H]2[C@@H](C)[C@H](C)O)[C@@H](O)[C@H]1O [Mupirocin] | little or no activity | 0.125 mg/L | 256 mg/L (≈ 511 µM) | kind of activity against log phase S. aureus ([4]; mupirocin alone at 40, 20 and 10 μg/ml): bacteriostatic |
| N=C(NCCCCCCNC(=N)NC(=N)Nc1ccc(Cl)cc1)NC(=N)Nc1ccc(Cl)cc1.O=C(O)[C@H](O)[C@@H](O)[C@H](O)[C@H](O)CO.O=C(O)[C@H](O)[C@@H](O)[C@H](O)[C@H](O)CO [Chlorhexidine gluconate] | – | – | – | MIC [2]: 0.5 mg/L; MBC [3]: 2 mg/L |
